Data as given in ChEMBL document CHEMBL2010773, “Design and synthesis of a vialinin A analog with a potent inhibitory activity of TNF-α production and its transformation into a couple of bioprobes” (Bioorg Med Chem Lett, 2012).
Activity calls are given as the source filed them. No cut-off for these calls is given here.

Assays:
RBL-2H3 [1] = assay: Antiinflammatory activity in rat RBL2H3 cells assessed as inhibition of DNP-BSA-induced TNF-alpha production preincubated for 15 mins prior DNP-BSA challenge measured after 30 mins by ELISA; format: functional, cell-based
RBL-2H3 [2] = assay: Antiinflammatory activity in rat RBL2H3 cells assessed as inhibition of DNP-BSA-induced TNF-alpha production at 1 nM preincubated for 15 mins prior DNP-BSA challenge measured after 30 mins by ELISA; format: functional, cell-based
[3] = system: Radical scavenging activity; assay: Antioxidant activity assessed as DPPH radical scavenging activity after 30 mins by spectrophotometry; format: functional

SMILES	IC50 (RBL-2H3 [1])	inhibition (RBL-2H3 [2])	EC50 [3]
COc1ccc2c(COC(=O)CCCCCn3cc(COc4ccc(-c5c(C)c(C)c(-c6ccc(O)cc6)c(O)c5O)cc4)nn3)cc(=O)oc2c1	0.55 nM	–	–
Cc1c(C)c(-c2ccc(O)cc2)c(O)c(O)c1-c1ccc(O)cc1	0.02 nM	–	–
COCOc1c(OCOC)c(-c2ccc(O)cc2)c(C)c(C)c1-c1ccc(O)cc1	0.32 nM	Active	–
O=C(Cc1ccccc1)Oc1c(OC(=O)Cc2ccccc2)c(-c2ccc(O)cc2)c(O)c(O)c1-c1ccc(O)cc1 [VIALININ A]	0.09 nM	–	14000 nM
Cc1c(C)c(-c2ccc(OCc3cn(CCCCCCNC(=O)CCCC[C@@H]4SC[C@@H]5NC(=O)N[C@@H]54)nn3)cc2)c(O)c(O)c1-c1ccc(O)cc1	8.15 nM	–	–
